One experiment concerns the target human TASK-3 (Homo sapiens (Human), UniProt Q9NPC2). The experiment can be described thus: Inhibition of recombinant TASK-3 in stably transfected CHO cells (voltage-sensitive dye, 40 mM KCl depolarization). It counts as cell-based. The settings on record: 40 mM potassium chloride. As to the method:
(§1) B-2. Inhibition of Recombinant TASK-1 and TASK-3 In Vitro
(§2) The investigations on the inhibition of the recombinant TASK-1 and TASK-3 channels were conducted using stably transfected CHO cells. The compounds according to the invention were tested in this case by application of 40 mM potassium chloride in the presence of a voltage-sensitive dye according to the methods described in detail in the following references [Whiteaker et al., Validation of FLIPR membrane potential dye for high-throughput screening of potassium channel modulators, J. Biomol. Screen. 6 (5), 305-312 (2001); Molecular Devices FLIPR Application Note: Measuring membrane potential using the FLIPR® membrane potential assay kit on Fluorometric Imaging Plate Reader (FLIPR®) systems, http://www.moleculardevices.com/reagents-supplies/assay-kits/ion-channels/flipr-membrane-potential-assay-kits]. The activity of the test substances was determined as their ability to inhibit a depolarization induced in the recombinant cells by 40 mM potassium chloride. The concentration which can block half of this depolarization is referred to as IC50.

A further experiment has as its target human TASK-1 (Homo sapiens (Human), UniProt O14649). The experiment can be described thus: Inhibition of recombinant TASK-1 in stably transfected CHO cells (voltage-sensitive dye, 40 mM KCl depolarization). It counts as cell-based. Particulars: 40 mM potassium chloride. As for the experimental part: as §1, §2

The structures appear in SMILES notation.

Sequence of human TASK-1 (O14649 whole entry): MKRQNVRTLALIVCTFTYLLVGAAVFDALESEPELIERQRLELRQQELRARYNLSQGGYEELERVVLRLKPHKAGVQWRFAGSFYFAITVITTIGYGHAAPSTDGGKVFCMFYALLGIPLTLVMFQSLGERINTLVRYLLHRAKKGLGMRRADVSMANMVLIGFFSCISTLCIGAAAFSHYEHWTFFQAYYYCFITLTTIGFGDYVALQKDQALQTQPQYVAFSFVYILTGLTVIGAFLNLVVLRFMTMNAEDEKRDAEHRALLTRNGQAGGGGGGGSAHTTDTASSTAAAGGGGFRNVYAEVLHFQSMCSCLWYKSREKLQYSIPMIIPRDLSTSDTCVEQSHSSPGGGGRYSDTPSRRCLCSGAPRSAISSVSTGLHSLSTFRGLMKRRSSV
Sequence of human TASK-3 (Q9NPC2 whole entry): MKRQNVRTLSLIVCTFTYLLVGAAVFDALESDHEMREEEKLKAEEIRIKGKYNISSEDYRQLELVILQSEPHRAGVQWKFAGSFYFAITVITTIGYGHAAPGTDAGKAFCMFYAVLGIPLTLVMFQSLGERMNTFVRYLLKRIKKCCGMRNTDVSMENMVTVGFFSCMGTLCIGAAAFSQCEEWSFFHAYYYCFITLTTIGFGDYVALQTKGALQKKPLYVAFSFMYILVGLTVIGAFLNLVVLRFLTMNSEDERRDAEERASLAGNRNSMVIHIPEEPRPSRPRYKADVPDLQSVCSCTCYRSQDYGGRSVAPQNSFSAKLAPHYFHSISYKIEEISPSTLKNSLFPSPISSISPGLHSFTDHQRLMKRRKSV

Regarding `O=C(Nc1ccccc1F)N1CC2CN(Cc3c(-c4ccc(Br)cc4)nc4ccccn34)CC2C1` (stereo not shown) [Example 41], the IC50 was 2900 nM at human TASK-3 and 580 nM at human TASK-1.

Consider `O=C(OCCF)N1CC2CN(Cc3c(-c4ccc(Br)cc4)nc4ccccn34)CC2C1` (stereo not shown) [Example 37], for which the IC50 on human TASK-3 came out at 1800 nM; at human TASK-1 it was 600 nM.

With `O=C(OC1CCCC1)N1CC2CN(Cc3c(-c4ccc(Br)cc4)nc4ccccn34)CC2C1` (stereo not shown) [Example 34], the values for the IC50 at human TASK-3 and on human TASK-1 were 3300 nM and 500 nM, respectively.

In the case of `O=C(c1ccccc1)N1CC2CN(Cc3c(-c4ccc(Cl)cc4)nc4ccc(-c5ccccc5)cn34)CC2C1` (stereo not shown) [Example 160 in WO 2014/187922, reference compound], the IC50 was determined as 2400 nM at human TASK-3 and 15000 nM at human TASK-1.

Turning to `COc1ccc(F)cc1C(=O)N1CC2CN(Cc3c(-c4ccc(Br)cc4)nc4ccccn34)CC2C1` (stereo not shown) [Example 12], the IC50 at human TASK-3 was determined as 960 nM; on human TASK-1, 1200 nM.

Take `O=C(c1cccc(OC(F)(F)F)c1)N1CC2CN(Cc3c(-c4ccc(Cl)cc4)nc4ccccn34)CC2C1` (stereo not shown) [Example 22]: the IC50 at human TASK-3 is 320 nM; at human TASK-1 it was 1460 nM.

`CC(C)OC(=O)N1CC2CN(Cc3c(-c4ccc(Br)cc4)nc4ccccn34)CC2C1` (stereo not shown) [Example 35]: the IC50 at human TASK-3 was found to be 1700 nM; on human TASK-1, 700 nM.

Regarding `O=C(NC1CCCCC1)N1CC2CN(Cc3c(-c4ccc(Br)cc4)nc4ccccn34)CC2C1` (stereo not shown) [Example 45], the values for the IC50 on human TASK-3 and at human TASK-1 were 5800 nM and 2300 nM, respectively.

For `O=C(OCc1ccccc1)N1CC2CN(Cc3c(-c4ccc(Br)cc4)nc4ccccn34)CC2C1` (stereo not shown) [Example 33], the IC50 is 4400 nM on human TASK-3 and 460 nM on human TASK-1.

For the molecule `O=C(C1CCCCC1)N1CC2CN(Cc3c(-c4ccc(Br)cc4)nc4ccccn34)CC2C1` (stereo not shown) [Example 8], the results for the IC50 on human TASK-3 and at human TASK-1 were 810 nM and 1360 nM, respectively.

As to `O=C(c1cc(F)ccc1Cl)N1CC2CN(Cc3c(-c4ccc(Br)cc4)nc4ccccn34)CC2C1` (stereo not shown) [Example 7], the IC50 was 4300 nM at human TASK-3 and 787 nM at human TASK-1.

As to `COc1ccc(Cl)c(C(=O)N2CC3CN(Cc4c(-c5ccc(Cl)cc5)nc5ccccn45)CC3C2)n1` (stereo not shown) [Example 51], the IC50 on human TASK-3 came to 80 nM; at human TASK-1 it was 1400 nM.

`Cc1ccc(F)cc1C(=O)N1CC2CN(Cc3c(-c4ccc(Cl)cc4)nc4ccccn34)CC2C1` (stereo not shown) [Example 21]: the 50% inhibitory concentration (IC50) at human TASK-3 was found to be 230 nM; on human TASK-1, 1250 nM.

`O=C(Nc1ccc(F)cc1)N1CC2CN(Cc3c(-c4ccc(Br)cc4)nc4ccccn34)CC2C1` (stereo not shown) [Example 47]: the IC50 at human TASK-3 was determined as 240 nM; on human TASK-1, 1000 nM.

Turning to `O=C(C1CCCCC1)N1CC2CN(Cc3c(-c4ccc(Cl)cc4)nc4ccccn34)CC2C1` (stereo not shown) [Example 16], the IC50 at human TASK-3 came to 1100 nM; on human TASK-1, 1940 nM.

On to `Cc1ccccc1C(=O)N1CC2CN(Cc3c(-c4ccc(Br)cc4)nc4ccccn34)CC2C1` (stereo not shown) [Example 13], for which the figures for the IC50 at human TASK-3 and on human TASK-1 were 1300 nM and 712 nM, respectively.

With `CC(C)(C)OC(=O)N1CC2CN(Cc3c(-c4ccc(Cl)cc4)nc4ccccn34)CC2C1` (stereo not shown) [Example 1, tert-butyl 5-{[2-(4-chlorophenyl)imidazo [1,2-a]pyridin-3-yl]methyl}hexahydropyrrolo[3,4-c]pyrrole-2(1H)-carboxylate], the values for the IC50 on human TASK-3 and on human TASK-1 were 6100 nM and 2410 nM, respectively.

With `CC(C)(C)OC(=O)N1CC2CN(Cc3c(-c4ccc(Br)cc4)nc4ccccn34)CC2C1` (stereo not shown) [Example 2], the IC50 is 5400 nM at human TASK-3 and 1730 nM at human TASK-1.

With `O=C(c1ccccc1F)N1CC2CN(Cc3c(-c4ccc(Cl)cc4)nc4ccccn34)CC2C1` (stereo not shown) [Example 14], the IC50 at human TASK-3 was determined as 3400 nM; at human TASK-1, 1060 nM.

On to `COc1cccc(C(=O)N2CC3CN(Cc4c(-c5ccc(C(C)C)cc5)nc5ccccn45)CC3C2)c1` (stereo not shown) [Example 27], for which the IC50 at human TASK-3 and on human TASK-1 was 170 nM in each case.

On to `COc1cccc(C(=O)N2CC3CN(Cc4c(-c5ccc(Br)cc5)nc5ccccn45)CC3C2)n1` (stereo not shown) [Example 24], for which the IC50 on human TASK-3 came to 800 nM; at human TASK-1, 330 nM.

Regarding `COc1ccc(F)cc1C(=O)N1CC2CN(Cc3c(-c4ccc(Cl)cc4)nc4ccccn34)CC2C1` (stereo not shown) [Example 19], the IC50 on human TASK-3 came out at 1500 nM; at human TASK-1, 1250 nM.

For the molecule `CC(C)c1ccc(-c2nc3ccccn3c2CN2CC3CN(C(=O)C4CCCC4)CC3C2)cc1` (stereo not shown) [Example 28], the IC50 was found to be 190 nM at human TASK-3 and 300 nM on human TASK-1.

On to `O=C(C1CCC1)N1CC2CN(Cc3c(-c4ccc(Br)cc4)nc4ccccn34)CC2C1` (stereo not shown) [Example 9], for which the IC50 at human TASK-3 was determined as 660 nM; on human TASK-1 it was 749 nM.

In the case of `COc1ccc(C)c(C(=O)N2CC3CN(Cc4c(-c5ccc(Cl)cc5)nc5ccccn45)CC3C2)n1` (stereo not shown) [Example 49], the values for the IC50 on human TASK-3 and at human TASK-1 were 4.6 nM and 94 nM, respectively.

With `CN(C(=O)N1CC2CN(Cc3c(-c4ccc(Br)cc4)nc4ccccn34)CC2C1)c1ccccc1` (stereo not shown) [Example 29, 5-{[2-(4-Bromophenyl)imidazo[1,2-a]pyridin-3-yl]methyl}-N-methyl-N-phenylhexahydropyrrolo[3,4-c]pyrrole-2(1H)-carboxamide], the IC50 worked out at 2100 nM at human TASK-3 and 920 nM at human TASK-1.

Consider `O=C(c1cccc(C(F)(F)F)c1)N1CC2CN(Cc3c(-c4ccc(Cl)cc4)nc4ccccn34)CC2C1` (stereo not shown) [Example 23], for which the IC50 at human TASK-3 was 100 nM; at human TASK-1, 728 nM.

`Cc1ccccc1C(=O)N1CC2CN(Cc3c(-c4ccc(Cl)cc4)nc4ccccn34)CC2C1` (stereo not shown) [Example 20]: the values for the 50% inhibitory concentration (IC50) on human TASK-3 and on human TASK-1 were 2500 nM and 1020 nM, respectively.

Turning to `O=C(Nc1ccc(Cl)c(C(F)(F)F)c1)N1CC2CN(Cc3c(-c4ccc(Br)cc4)nc4ccccn34)CC2C1` (stereo not shown) [Example 43], the IC50 at human TASK-3 was determined as 2000 nM; at human TASK-1, 1700 nM.

With `O=C(N1CC2CN(Cc3c(-c4ccc(Br)cc4)nc4ccccn34)CC2C1)N1CCCc2ccccc21` (stereo not shown) [Example 30], the IC50 came out at 1200 nM on human TASK-3 and 480 nM at human TASK-1.

For `COc1ccccc1C(=O)N1CC2CN(Cc3c(-c4ccc(Cl)cc4)nc4ccccn34)CC2C1` (stereo not shown) [Example 18], the IC50 was found to be 4900 nM on human TASK-3 and 1680 nM at human TASK-1.

Consider `COc1ccc(F)c(C(=O)N2CC3CN(Cc4c(-c5ccc(C(C)C)cc5)nc5ccccn45)CC3C2)n1` (stereo not shown) [Example 48], for which the IC50 was determined as 79 nM on human TASK-3 and 78 nM on human TASK-1.

Regarding `O=C(c1ccccc1F)N1CC2CN(Cc3c(-c4ccc(Br)cc4)nc4ccccn34)CC2C1` (stereo not shown) [Example 6], the results for the IC50 at human TASK-3 and on human TASK-1 were 1300 nM and 683 nM, respectively.

Consider `COc1ccccc1C(=O)N1CC2CN(Cc3c(-c4ccc(Br)cc4)nc4ccccn34)CC2C1` (stereo not shown) [Example 11], for which the values for the IC50 at human TASK-3 and on human TASK-1 were 2500 nM and 1210 nM, respectively.

`O=C(Nc1cc(C(F)(F)F)ccc1Cl)N1CC2CN(Cc3c(-c4ccc(Br)cc4)nc4ccccn34)CC2C1` (stereo not shown) [Example 44]: the IC50 worked out at 2000 nM at human TASK-3 and 700 nM at human TASK-1.

In the case of `CC(C)c1ccc(-c2nc3ccccn3c2CN2CC3CN(C(=O)OC(C)(C)C)CC3C2)cc1` (stereo not shown) [Example 3], the IC50 was 7400 nM on human TASK-3 and 2500 nM on human TASK-1.

In the case of `O=C(c1cc(F)ccc1Cl)N1CC2CN(Cc3c(-c4ccc(Cl)cc4)nc4ccccn34)CC2C1` (stereo not shown) [Example 15], the IC50 on human TASK-3 was determined as 2900 nM; on human TASK-1, 1000 nM.

Take `CC(NC(=O)N1CC2CN(Cc3c(-c4ccc(Br)cc4)nc4ccccn34)CC2C1)c1ccccc1` (stereo not shown) [Example 46]: the IC50 on human TASK-3 came to 2200 nM; on human TASK-1, 460 nM.

As for `O=C(Nc1ccc(F)cc1F)N1CC2CN(Cc3c(-c4ccc(Br)cc4)nc4ccccn34)CC2C1` (stereo not shown) [Example 38, 5-{[2-(4-Bromophenyl)imidazo[1,2-a]pyridin-3-yl]methyl}-N-(2,4-difluorophenyl)hexahydropyrrolo[3,4-c]pyrrole-2(1H)-carboxamide], the results for the IC50 on human TASK-3 and at human TASK-1 were 1900 nM and 1500 nM, respectively.

As to `COc1ccc(F)c(C(=O)N2CC3CN(Cc4c(-c5ccc(Cl)cc5)nc5ccccn45)CC3C2)n1` (stereo not shown) [Example 50], the IC50 on human TASK-3 worked out at 110 nM; on human TASK-1 it was 1100 nM.

Turning to `CC(C)COC(=O)N1CC2CN(Cc3c(-c4ccc(Br)cc4)nc4ccccn34)CC2C1` (stereo not shown) [Example 32], the IC50 on human TASK-3 is 1200 nM; on human TASK-1, 1100 nM.

As for `O=C(Oc1cccc(C(F)(F)F)c1)N1CC2CN(Cc3c(-c4ccc(Br)cc4)nc4ccccn34)CC2C1` (stereo not shown) [Example 36], the IC50 stood at 450 nM on human TASK-3 and 180 nM on human TASK-1.

As to `CC(C)c1ccc(-c2nc3ccccn3c2CN2CC3CN(C(=O)c4ccccc4F)CC3C2)cc1` (stereo not shown) [Example 26], the concentration for half-maximal inhibition (IC50) at human TASK-3 was 310 nM; at human TASK-1 it was 220 nM.

Consider `O=C(C1CCCC1)N1CC2CN(Cc3c(-c4ccc(Br)cc4)nc4ccccn34)CC2C1` (stereo not shown) [Example 5, [5-{[2-(4-Bromophenyl)imidazo[1,2-a]pyridin-3-yl]methyl}hexahydropyrrolo[3,4-c]pyrrol-2(1H)-yl](cyclopentyl)methanone], for which the IC50 at human TASK-3 turned out to be 1600 nM; on human TASK-1, 1130 nM.
